Measured values taken from ChEMBL document CHEMBL4602666, “Nostotrebin 6 Related Cyclopentenediones and δ-Lactones with Broad Activity Spectrum Isolated from the Cultivation Medium of the Cyanobacterium Nostoc sp. CBT1153” (J Nat Prod, 2020).
≈ marks a conversion by molar mass, not a printed value. Calls of active or inactive are those of the source. The calls are words filed in the database; no cut-off is given here.

Columns and labels:
Staphylococcus aureus = test: Antibacterial activity against Staphylococcus aureus ATCC 29213 assessed as reduction cell viability after 16 to 20 hrs by CLSI based two-fold serial dilution method; format: functional
Bacillus subtilis = test: Antibacterial activity against Bacillus subtilis 168 assessed as reduction cell viability after 16 to 20 hrs by CLSI based two-fold serial dilution method; format: functional
Rhodesain = Rhodesain (Trypanosoma brucei rhodesiense, UniProt Q95PM0); test: Inhibition of Trypanosoma brucei rhodesiense C-terminal full length rhodesain expressed in Pichia pastoris using Cbz-PheArg-AMC as substrate measured every 30 sec for 10 mins by fluorescence based assay
Rhodesain, sequence (Q95PM0 whole entry): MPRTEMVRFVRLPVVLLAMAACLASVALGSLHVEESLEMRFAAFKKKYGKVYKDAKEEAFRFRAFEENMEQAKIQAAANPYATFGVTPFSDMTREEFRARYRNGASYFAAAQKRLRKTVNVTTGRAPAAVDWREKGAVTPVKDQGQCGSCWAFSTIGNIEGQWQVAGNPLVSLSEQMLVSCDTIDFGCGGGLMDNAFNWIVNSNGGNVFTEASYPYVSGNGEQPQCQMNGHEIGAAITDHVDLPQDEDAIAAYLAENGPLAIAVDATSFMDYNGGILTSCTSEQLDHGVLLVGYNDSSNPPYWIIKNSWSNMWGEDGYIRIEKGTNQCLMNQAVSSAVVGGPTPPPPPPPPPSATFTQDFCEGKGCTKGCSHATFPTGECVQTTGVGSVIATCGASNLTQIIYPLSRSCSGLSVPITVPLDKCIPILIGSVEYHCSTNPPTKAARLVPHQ

HeLa = test: Cytotoxicity against human HeLa cells assessed as reduction in cell viability after 24 hrs by resazurin staining based fluorescence assay
Enterococcus faecium = test: Antibacterial activity against Enterococcus faecium BM4147-1 assessed as reduction cell viability after 16 to 20 hrs by CLSI based two-fold serial dilution method; format: functional
[1] = target: Rhodesain (Trypanosoma brucei rhodesiense) (UniProt Q95PM0); test: Inhibition of Trypanosoma brucei rhodesiense C-terminal full length rhodesain expressed in Pichia pastoris at 50 uM using Cbz-PheArg-AMC as substrate measured every 30 sec for 10 mins in presence of 0.005 to 0.025 % of Brij-35 by fluorescence based assay
Rhodesain (Trypanosoma brucei rhodesiense), sequence (Q95PM0 1-450): as the sequence (Q95PM0 whole entry) above

[2] = target: Rhodesain (Trypanosoma brucei rhodesiense) (UniProt Q95PM0); test: Inhibition of Trypanosoma brucei rhodesiense C-terminal full length rhodesain expressed in Pichia pastoris using Cbz-PheArg-AMC as substrate preincubated for 5 to 30 mins followed by substrate and measured every 30 sec for 10 mins by fluorescence based assay
[3] = target: Rhodesain (Trypanosoma brucei rhodesiense) (UniProt Q95PM0); test: Inhibition of Trypanosoma brucei rhodesiense C-terminal full length rhodesain expressed in Pichia pastoris at 50 uM using Cbz-PheArg-AMC as substrate measured every 30 sec for 10 mins in presence of 4.75 mM DTT by fluorescence based assay

O=C1C(Cc2ccc(O)cc2)=C(Cc2ccc(O)cc2)C(=O)C1(c1ccc(O)cc1)c1cc(Cc2c(Cc3ccc(O)cc3)cc(-c3ccc(O)cc3)oc2=O)c(O)cc1O
MIC (Staphylococcus aureus): 3 µM (≈ 2.44 µg/mL)
MIC (Bacillus subtilis): 3 µM (≈ 2.44 µg/mL)
IC50 (Rhodesain): 33 µM
IC50 (HeLa): 33 µM
MIC (Enterococcus faecium): 13 µM (≈ 10.6 µg/mL)

O=c1oc(-c2ccc(O)cc2)cc(Cc2ccc(O)cc2)c1Cc1ccc(O)cc1O
MIC (Staphylococcus aureus): 50 µM (≈ 20.8 µg/mL)
MIC (Bacillus subtilis): 50 µM (≈ 20.8 µg/mL)
IC50 (Rhodesain): 63 µM
IC50 (HeLa): 84 µM
MIC (Enterococcus faecium): 100 µM (≈ 41.6 µg/mL)

O=C1C(Cc2ccc(O)cc2)=C(Cc2ccc(O)cc2)C(=O)C1(c1ccc(O)cc1)C1(c2ccc(O)cc2)C(=O)C(Cc2ccc(O)cc2)=C(Cc2ccc(O)cc2)C1=O
MIC (Staphylococcus aureus): 13 µM (≈ 10.4 µg/mL)
MIC (Bacillus subtilis): 13 µM (≈ 10.4 µg/mL)
IC50 (Rhodesain): 15 µM
inhibition [1]: Active
inhibition [2]: Active
IC50 (HeLa): 16 µM
inhibition [3]: Active
MIC (Enterococcus faecium): 13 µM (≈ 10.4 µg/mL)
